This note sets out measurements from US9475817B2 (BRISTOL-MYERS SQUIBB COMPANY, priority 2012, dated 2016).

In one assay the target is CK1ε (Homo sapiens (Human), UniProt P49674). Put plainly: CK1ε kinase assay (Caliper LabChip, fluoresceinated peptide substrate). Conditions: 200 pM CK1ε, 50 μM ATP, 1.5 μM peptide substrate, 22 hours room temperature. It is filed as biochemical. As for the experimental part:
(§1) CK1ε and CK1δ Kinase Assays
(§2) The kinase assay was performed in V-bottom 384-well plates. […] The reaction was incubated at room temperature for 22 hours and terminated by adding 45 μl of 35 mM EDTA to each sample. […] Compounds were dissolved at 10 mM in dimethylsulfoxide (DMSO) and evaluated at eleven concentrations. IC50 values were derived by non-linear regression analysis.

For another assay, the target named is CK1δ (Homo sapiens (Human), UniProt P48730). Put plainly: CK1δ kinase assay (Caliper LabChip, fluoresceinated peptide substrate). The settings on record: 200 pM CK1δ, 50 μM ATP, 1.5 μM peptide substrate, 22 hours room temperature. It is filed as biochemical. Here is the method: as §1, §2
Chain of CK1δ (P48730 whole entry): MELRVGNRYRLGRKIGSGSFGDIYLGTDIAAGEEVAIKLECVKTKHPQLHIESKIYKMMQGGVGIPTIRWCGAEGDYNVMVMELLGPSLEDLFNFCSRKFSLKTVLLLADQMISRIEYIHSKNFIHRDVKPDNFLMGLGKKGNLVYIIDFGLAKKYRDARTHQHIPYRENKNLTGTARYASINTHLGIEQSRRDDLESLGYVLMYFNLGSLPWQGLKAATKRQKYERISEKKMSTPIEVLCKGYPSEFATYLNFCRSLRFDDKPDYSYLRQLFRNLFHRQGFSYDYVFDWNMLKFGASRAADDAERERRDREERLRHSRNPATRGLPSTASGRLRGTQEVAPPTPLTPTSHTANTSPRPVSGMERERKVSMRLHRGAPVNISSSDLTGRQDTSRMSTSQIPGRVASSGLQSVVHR

Chain of CK1ε (P49674 whole entry): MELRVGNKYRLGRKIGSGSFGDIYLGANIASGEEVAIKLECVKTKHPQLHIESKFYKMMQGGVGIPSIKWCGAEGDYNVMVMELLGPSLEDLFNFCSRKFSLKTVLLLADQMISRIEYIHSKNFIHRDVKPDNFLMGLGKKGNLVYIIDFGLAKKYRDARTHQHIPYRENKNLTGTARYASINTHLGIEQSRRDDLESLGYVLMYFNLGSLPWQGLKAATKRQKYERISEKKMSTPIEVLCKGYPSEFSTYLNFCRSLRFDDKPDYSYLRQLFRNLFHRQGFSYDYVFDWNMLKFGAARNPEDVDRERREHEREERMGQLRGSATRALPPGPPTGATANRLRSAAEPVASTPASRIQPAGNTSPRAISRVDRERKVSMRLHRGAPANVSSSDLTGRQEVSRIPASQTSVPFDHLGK

`Cn1cc(-c2ccc3nc(NC(=O)C4CCC4)cn3n2)c(-c2ccc(F)cc2)n1` [Compound 89, N-(6-(3-(4-fluorophenyl)-1-methyl-1H-pyrazol-4-yl)imidazo[1,2-b]pyridazin-2-yl)cyclobutanecarboxamide]: the IC50 against CK1ε is 25.8 nM; at CK1δ, 7.1 nM.

For `Cn1nc(-c2ccc(F)cc2)c(-c2ccc3nc(NC(=O)c4ccncc4)cn3n2)c1C1CCN(CCO)CC1` [Compound 168, N-(6-(3-(4-fluorophenyl)-5-(1-(2-hydroxyethyl)piperidin-4-yl)-1-methyl-1H-pyrazol-4-yl)imidazo[1,2-b]pyridazin-2-yl)isonicotinamide], the IC50 against CK1ε came out at 1.5 nM; against CK1δ, 1.3 nM.

For the compound `Cn1cc(-c2ccc3nc(NC(=O)CC(F)(F)F)cn3n2)c(-c2ccc(F)cc2)n1` [Compound 99, 3,3,3-trifluoro-N-(6-(3-(4-fluorophenyl)-1-methyl-1H-pyrazol-4-yl)imidazo[1,2-b]pyridazin-2-yl)propanamide], the values for the IC50 at CK1ε and against CK1δ were 47.3 nM and 10.3 nM, respectively.

Regarding `Cn1nc(-c2ccc(F)cc2)c(-c2ccc3nc(NC(=O)c4ccncc4)cn3n2)c1N1CCN(C(=O)CC(F)(F)F)CC1` [Compound 132, N-(6-(3-(4-Fluorophenyl)-1-methyl-5-(4-(3,3,3-trifluoropropanoyl)piperazin-1-yl)-1H-pyrazol-4-yl)imidazo[1,2-b]pyridazin-2-yl)isonicotinamide], the IC50 at CK1ε is 6.7 nM; at CK1δ, 0.6 nM.

Regarding `Cn1nc(-c2ccc(F)cc2)c(-c2ccc3nc(NC(=O)c4ccnc(N)c4)cn3n2)c1N1CCN(Cc2ccon2)CC1` [Compound 142, 2-Amino-N-(6-(3-(4-fluorophenyl)-5-(4-(isoxazol-3-ylmethyl)piperazin-1-yl)-1-methyl-1H-pyrazol-4-yl)imidazo[1,2-b]pyridazin-2-yl)isonicotinamide], the IC50 on CK1ε is 2.2 nM; at CK1δ it was 0.3 nM.

In the case of `Cn1cc(-c2ccc3nc(NC(=O)c4cccc(C(F)(F)F)n4)cn3n2)c(-c2ccc(F)cc2)n1` [Compound 65, N-(6-(3-(4-fluorophenyl)-1-methyl-1H-pyrazol-4-yl)imidazo[1,2-b]pyridazin-2-yl)-6-(trifluoromethyl) picolinamide], the IC50 was 158 nM on CK1ε and 24.7 nM on CK1δ.

`O=C(Nc1cn2nc(-c3cn(C4CC4)nc3-c3ccc(F)cc3)ccc2n1)C1CC1` [Compound 101, N-(6-(1-Cyclopropyl-3-(4-fluorophenyl)-1H-pyrazol-4-yl)imidazo[1,2-b]pyridazin-2-yl)cyclopropanecarboxamide]: the IC50 against CK1ε is 170 nM; on CK1δ, 28.1 nM.

With `Cc1nc(-c2cccnc2)sc1C(=O)Nc1cn2nc(-c3c(-c4ccc(F)cc4)nn(C)c3C3CCN(CCC(F)(F)F)CC3)ccc2n1` [Compound 177, N-(6-(3-(4-fluorophenyl)-1-methyl-5-(1-(3,3,3-trifluoropropyl)piperidin-4-yl)-1H-pyrazol-4-yl)imidazo[1,2-b]pyridazin-2-yl)-4-methyl-2-(pyridin-3-yl)thiazole-5-carboxamide], the figures for the IC50 against CK1ε and against CK1δ were 12.2 nM and 0.7 nM, respectively.

As for `Cn1cc(-c2ccc3nc(NC(=O)c4csc(Br)n4)cn3n2)c(-c2ccc(F)cc2)n1` [Compound 13, 2-bromo-N-(6-(3-(4-fluorophenyl)-1-methyl-1H-pyrazol-4-yl)imidazo[1,2-b]pyridazin-2-yl)thiazole-4-carboxamide], the figures for the IC50 at CK1ε and at CK1δ were 22.9 nM and 2.6 nM, respectively.

On to `O=C(Nc1cn2nc(-c3cn(C4CC4)nc3-c3ccc(F)cc3)ccc2n1)c1ccncc1` [Compound 102, N-(6-(1-Cyclopropyl-3-(4-fluorophenyl)-1H-pyrazol-4-yl)imidazo[1,2-b]pyridazin-2-yl)isonicotinamide], for which the IC50 on CK1ε was determined as 9.9 nM; on CK1δ it was 3 nM.

For `Cn1cc(-c2ccc3nc(NC(=O)c4cc(F)cc(C#N)c4)cn3n2)c(-c2ccc(F)cc2)n1` [Compound 57, 3-cyano-5-fluoro-N-(6-(3-(4-fluorophenyl)-1-methyl-1H-pyrazol-4-yl)imidazo[1,2-b]pyridazin-2-yl)benzamide], the IC50 was 22.3 nM against CK1ε and 8.9 nM against CK1δ.

As to `Cn1cc(-c2ccc3nc(NC(=O)c4ccc(-n5cccn5)nc4)cn3n2)c(-c2ccc(F)cc2)n1` [Compound 71, N-(6-(3-(4-fluorophenyl)-1-methyl-1H-pyrazol-4-yl)imidazo[1,2-b]pyridazin-2-yl)-6-(1H-pyrazol-1-yl)nicotinamide], the IC50 against CK1ε came to 17.3 nM; against CK1δ it was 3.8 nM.

On to `Cc1ncccc1C(=O)Nc1cn2nc(-c3cn(C)nc3-c3ccc(F)cc3)ccc2n1` [Compound 78, N-(6-(3-(4-fluorophenyl)-1-methyl-1H-pyrazol-4-yl)imidazo[1,2-b]pyridazin-2-yl)-2-methylnicotinamide], for which the IC50 came out at 11 nM against CK1ε and 3.3 nM at CK1δ.

For the compound `Cn1nc(-c2ccc(F)cc2)c(-c2ccc3nc(NC(=O)c4ccnc(F)c4)cn3n2)c1N1CCN(CCS(C)(=O)=O)CC1` [Compound 126, 2-Fluoro-N-(6-(3-(4-fluorophenyl)-1-methyl-5-(4-(2-(methylsulfonyl)ethyl)piperazin-1-yl)-1H-pyrazol-4-yl)imidazo[1,2-b]pyridazin-2-yl)isonicotinamide], the IC50 is 124 nM against CK1ε and 2.9 nM on CK1δ.

On to `Cn1cc(-c2ccc3nc(NC(=O)c4ccc(F)c(C#N)c4)cn3n2)c(-c2ccc(F)cc2)n1` [Compound 56, 3-cyano-4-fluoro-N-(6-(3-(4-fluorophenyl)-1-methyl-1H-pyrazol-4-yl)imidazo[1,2-b]pyridazin-2-yl)benzamide], for which the IC50 at CK1ε was 44.9 nM; at CK1δ, 14.4 nM.

For `Cn1cc(-c2ccc3nc(NC(=O)c4ccncn4)cn3n2)c(-c2ccc(F)cc2)n1` [Compound 38, N-(6-(3-(4-fluorophenyl)-1-methyl-1H-pyrazol-4-yl)imidazo[1,2-b]pyridazin-2-yl)pyrimidine-4-carboxamide], the IC50 at CK1ε was 43.4 nM; against CK1δ it was 10.7 nM.

On to `Cn1cc(-c2ccc3nc(NC(=O)c4cc(F)ccc4F)cn3n2)c(-c2ccc(F)cc2)n1` [Compound 51, 2,5-difluoro-N-(6-(3-(4-fluorophenyl)-1-methyl-1H-pyrazol-4-yl)imidazo[1,2-b]pyridazin-2-yl)benzamide], for which the IC50 against CK1ε was determined as 22.9 nM; on CK1δ, 6.3 nM.

As for `Cn1nc(-c2ccc(F)cc2)c(-c2ccc3nc(NC(=O)c4ccnc(F)c4)cn3n2)c1N1CCNCC1` [Compound 113, 2-fluoro-N-(6-(3-(4-fluorophenyl)-1-methyl-5-(piperazin-1-yl)-1H-pyrazol-4-yl)imidazo[1,2-b]pyridazin-2-yl)isonicotinamide], the IC50 against CK1ε worked out at 2.3 nM; against CK1δ it was 0.6 nM.

`Cn1cc(-c2ccc3nc(NC(=O)c4ccc(CO)cc4F)cn3n2)c(-c2ccc(F)cc2)n1` [Compound 41, 2-fluoro-N-(6-(3-(4-fluorophenyl)-1-methyl-1H-pyrazol-4-yl)imidazo[1,2-b]pyridazin-2-yl)-4-(hydroxymethyl)benzamide]: the IC50 against CK1ε was 11.5 nM; at CK1δ it was 4 nM.

On to `Cn1cc(-c2ccc3nc(NC(=O)c4csc(-c5ccc(Cl)cc5)n4)cn3n2)c(-c2ccc(F)cc2)n1` [Compound 11, 2-(4-chlorophenyl)-N-(6-(3-(4-fluorophenyl)-1-methyl-1H-pyrazol-4-yl)imidazo[1,2-b]pyridazin-2-yl)thiazol-4-carboxamide], for which the IC50 at CK1ε amounted to 899 nM; at CK1δ, 24.6 nM.

Turning to `Cn1cc(-c2ccc3nc(NC(=O)c4ccncc4F)cn3n2)c(-c2ccc(F)cc2)n1` [Compound 35, 3-fluoro-N-(6-(3-(4-fluorophenyl)-1-methyl-1H-pyrazol-4-yl)imidazo[1,2-b]pyridazin-2-yl)isonicotinamide], the IC50 at CK1ε was 9.1 nM; at CK1δ it was 2.8 nM.

For `Cc1cc(C(=O)Nc2cn3nc(-c4cn(C)nc4-c4ccc(F)cc4)ccc3n2)ccn1` [Compound 52, N-(6-(3-(4-fluorophenyl)-1-methyl-1H-pyrazol-4-yl)imidazo[1,2-b]pyridazin-2-yl)-2-methylisonicotinamide], the IC50 is 17.8 nM at CK1ε and 7.6 nM against CK1δ.

On to `COCC(=O)N1CCC(c2c(-c3ccc4nc(NC(=O)c5ccnc(F)c5)cn4n3)c(-c3ccc(F)cc3)nn2C)CC1` [Compound 152, 2-fluoro-N-(6-(3-(4-fluorophenyl)-5-(1-(2-methoxyacetyl)piperidin-4-yl)-1-methyl-1H-pyrazol-4-yl)imidazo[1,2-b]pyridazin-2-yl) isonicotinamide], for which the half-maximal inhibitory concentration (IC50) on CK1ε was 2.7 nM; on CK1δ, 0.3 nM.

For “2-fluoro-N-(6-(3-(4-fluorophenyl)-1- methyl-5-morpholino-1H-pyrazol-4-yl) imidazo[1,2-b]pyridazin-2-yl) isonicotinamide [Compound 144]”, the 50% inhibitory concentration (IC50) against CK1ε turned out to be 3.7 nM; at CK1δ, 0.74 nM.

As for `Cn1nc(-c2ccc(F)cc2)c(-c2ccc3nc(NC(=O)c4ccnc(F)c4)cn3n2)c1-c1ccncc1` [Compound 202, 2-Fluoro-N-(6-(3-(4-fluorophenyl)-1-methyl-5-(pyridin-4-yl)-1H-pyrazol-4-yl)imidazo[1,2-b]pyridazin-2-yl)isonicotinamide], the IC50 is 8.1 nM on CK1ε and 0.5 nM on CK1δ.

Consider `Cn1nc(-c2ccc(F)cc2)c(-c2ccc3nc(NC(=O)c4ccnc(N5CCOCC5)c4)cn3n2)c1N1CCN(Cc2ccon2)CC1` [Compound 136, N-(6-(3-(4-Fluorophenyl)-5-(4-(isoxazol-3-ylmethyl)piperazin-1-yl)-1-methyl-1H-pyrazol-4-yl)imidazo[1,2-b]pyridazin-2-yl)-2-morpholinoisonicotinamide], for which the figures for the IC50 at CK1ε and on CK1δ were 12 nM and 0.8 nM, respectively.

The IC50 is the point on the concentration scale where inhibition reaches its midpoint.
